Results: article PMC1851987, “Identification of the Endogenous Key Substrates of the Human Organic Cation Transporter OCT2 and Their Implication in Function of Dopaminergic Neurons” (PLoS ONE, 2007)
Where a chain is given by its changes, count along the chain named.

Tests used:
[1] = system: HTZ-146 cells; assay: MTT reduction cell viability assay, HTZ-146 cells; assay type: cell-based, human
Description: (§1) Cell viability was assessed in HEK-293 cells, human dopaminergic neuroblastoma cells (SH-SY5Y) and human glioblastoma cells (HTZ-146) by the MTT test as described.[22] […] For indication of metabolic activity, cells were treated with MTT reagent (15 µl of 1 mg/ml stock solution per well) for 1 h, and after drying of culture plates for 1 h at 37°C, the resulting formazan dye was extracted with isopropanol/HCl (100 µl 0.04 mol/l per well) and absorbance was determined spectrophotometrically at 568 nm. Results were in agreement with the data obtained by the tryptan blue exclusion method (data not shown).

[2] = system: SH-SY5Y cells; assay: MTT reduction cell viability assay, SH-SY5Y cells; assay type: cell-based, human
Description: as §1

[3] = biological target: T1, OCT2 variant K432Q (Homo sapiens, UniProt O15244, K432Q/S270A); assay: Specific uptake into HEK-293 cells transfected with OCT2 variant K432Q
T1 sequence (O15244 1-555 S270A/K432Q): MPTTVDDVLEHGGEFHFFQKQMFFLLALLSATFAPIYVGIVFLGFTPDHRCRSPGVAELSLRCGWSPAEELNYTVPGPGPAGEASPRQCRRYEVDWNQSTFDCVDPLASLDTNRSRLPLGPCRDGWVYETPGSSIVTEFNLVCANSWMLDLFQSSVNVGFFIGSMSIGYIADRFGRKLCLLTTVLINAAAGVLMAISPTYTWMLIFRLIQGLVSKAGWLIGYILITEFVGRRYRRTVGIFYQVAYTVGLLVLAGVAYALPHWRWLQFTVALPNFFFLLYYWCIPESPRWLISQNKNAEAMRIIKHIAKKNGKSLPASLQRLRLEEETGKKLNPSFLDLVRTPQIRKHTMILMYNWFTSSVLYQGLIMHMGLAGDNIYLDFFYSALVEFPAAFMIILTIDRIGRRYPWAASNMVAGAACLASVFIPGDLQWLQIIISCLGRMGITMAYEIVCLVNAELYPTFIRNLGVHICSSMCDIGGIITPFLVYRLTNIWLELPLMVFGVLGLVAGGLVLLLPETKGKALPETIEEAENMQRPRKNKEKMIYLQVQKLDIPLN
Description: (§2) The cDNAs encoding the organic cation transporters OCT1 (GenBank accession no. NM_003057), OCT2 (NM_003058), and EMT (NM_021977) were amplified by RT-PCR from human liver, kidney, and placenta total RNA respectively, and subcloned into the eukaryotic expression vector pcDNA3. The cDNA encoding the norepinephrine transporter (SLC6A2) was kindly provided by C. Pifl (University of Vienna).
(§3) For uptake experiments, cells were grown on polystyrene dishes of 60 mm diameter to at least 80% confluence. […] Cells were lysed with 1 ml of 4 mmol/l perchloric acid and lysates subjected to LC-MS-MS quantification. Cellular protein content was determined after solubilization of perchloric acid precipitates with 1 ml of […] NaOH using the bicinchoninic assay (BCA Protein Assay Kit, Pierce).
(§4) Chromatographic separations were performed on Hypercarb (5 µm, 50×2.1 mm; Thermo Electron), Aquasil C18 (3 µm, 100×4.6 mm; Thermo Electron), or Hilic columns (5 µm, 100×3.0 mm; Waters Atlantis) by isocratic or gradient elution using 0.1% aqueous formic acid (A) and acetonitrile or methanol (B) as solvent system. For quantification, SRM transitions of a precursor ion [M+H]^+ into a specific fragment ion (peak area ratios relative to IS) were recorded in positive ESI mode at 1.0–1.5 mTorr collision pressure and 10–40 eV collision energy. […]

[4] = biological target: T2, norepinephrine transporter (NET) (Homo sapiens, UniProt P23975); assay: Specific uptake into norepinephrine transporter (NET) transfected HEK-293 cells; assay type: cell-based; conditions: 10 µmol/l, 5 min incubation
T2 construct: expressed in transfected cells; host or cells: HEK-293, stably transfected; cDNA from C; Pifl (University of Vienna)
From the text: Pifl (University of Vienna).
1. Burnette WB, Bailey MD, Kukoyi S, Blakely RD, Trowbridge CG, et al. (1996) Human norepinephrine transporter kinetics using rotating disk electrode voltammetry. Anal Chem 68: 2932–2938. (0.90 MB TIF) Click here for additional data file.

[5] = biological target: T3, OCT2 variant M165I (Homo sapiens, UniProt O15244, M165I/S270A); assay: Specific uptake into HEK-293 cells transfected with OCT2 variant M165I
T3 sequence (O15244 1-555 M165I/S270A): T1 sequence (O15244 1-555 S270A/K432Q) with M165I, Q432K
Description: as §2, §3, §4

[6] = pre-treated 1 h with 10 µmol/l cyclo(his-pro)
[7] = incubation with 10 µmol/l, mean (s.e.m.)

T2 sequence (P23975 whole entry): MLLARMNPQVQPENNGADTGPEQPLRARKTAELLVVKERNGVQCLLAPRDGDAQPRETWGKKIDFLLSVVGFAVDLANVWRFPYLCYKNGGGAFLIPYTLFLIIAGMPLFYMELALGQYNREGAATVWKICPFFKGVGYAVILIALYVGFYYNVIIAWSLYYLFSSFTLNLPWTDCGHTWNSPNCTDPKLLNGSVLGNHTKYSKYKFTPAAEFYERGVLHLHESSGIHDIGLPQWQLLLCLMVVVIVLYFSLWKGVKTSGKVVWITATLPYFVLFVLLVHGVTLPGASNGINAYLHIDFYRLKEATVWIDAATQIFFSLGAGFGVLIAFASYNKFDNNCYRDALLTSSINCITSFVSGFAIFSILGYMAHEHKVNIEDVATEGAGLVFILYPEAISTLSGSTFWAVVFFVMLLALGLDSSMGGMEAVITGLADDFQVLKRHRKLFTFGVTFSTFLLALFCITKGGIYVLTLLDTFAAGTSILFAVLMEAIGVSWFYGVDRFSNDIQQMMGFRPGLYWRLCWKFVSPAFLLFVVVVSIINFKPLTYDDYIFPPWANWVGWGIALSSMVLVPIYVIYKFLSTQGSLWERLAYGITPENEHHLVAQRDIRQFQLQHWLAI

SMILES	effect on glutamate-induced cytotoxicity [1, 6]	effect on glutamate-induced cytotoxicity [2, 6]	Clin [3, 7]	substrate of NET (specific uptake) [4]	Clin [5, 7]	EC50 ([1]; Homo sapiens, 48 h, non-pretreated, read-out: EC50 (95% confidence interval), cell viability)	EC50 ([2]; Homo sapiens, SH-SY5Y, 48 h, non-pretreated, read-out: EC50 (95% confidence interval), cell viability)	Km at 1 min ([3]; human, pH 7.4)	Km at 1 min ([5]; human, pH 7.4)
O=C1NC(Cc2c[nH]cn2)C(=O)N2CCCC12 (stereo not shown) [cyclo(his-pro), histidyl-proline diketopiperazine]	prevented	prevented	26.0 (4.3) µl/mg/min	no substrates of NET	24.8 (3.7) µl/mg/min	–	–	–	–
CC1NCCc2cc(O)c(O)cc21 (stereo not shown) [salsolinol]	–	–	–	no substrates of NET	–	138 µM	49 µM	129 µM	127 µM
